Each structure is given as a SMILES string. Read-outs that look alike come from different tables or passages of the source.

Data set [1] concerns the target T1, GSK-3β (N-terminal His6-tagged recombinant human GSK3β with an H350L mutation) (Homo sapiens, UniProt P49841).
T1 construct: His6 (N); purchased EMD Millipore, Billerica, MA, USA
Description: GSK-3β luminescent (Kinase-Glo) inhibition assay. Type of data set: biochemical. As to the method: (§1) The assay is based on the phosphorylation of a peptide by the enzyme with ATP as phosphate donor. ATP, luciferin, and oxygen react to oxyluciferin, which is measured as a luminescence signal. The more the enzyme is inhibited, the stronger the luminescence signals are because of high ATP levels. 20 μL substrate solution (2 μM ATP, 40 μM peptide HSSPHQ-pSer-EDEEE (BIOSYNTAN, Berlin, Germany)) and 10 μL enzyme solution (12 mU GSK-3β (N-terminal His6-tagged recombinant human GSK3β with an H350L mutation, EMD Millipore, Billerica, MA, USA)) were incubated for 60 min at 25 °C. Then 40 μL Kinase-Glo reagent (Kinase-Glo Luminescent Assay Kit, Promega, Darmstadt, Germany) was added. After centrifugation and incubation for 10 min at 25 °C, the luminescence was measured. […] The antimicrobial activities of compounds 1, 2, and 3 against the bacterium Bacillus subtilis (DSM 347) and the human pathogenic yeast Candida albicans (DSM 1386) were determined according to Ohlendorf et al.. The determination of inhibitory activities against Xanthomonas campestris, Septoria tritici, and Propionibacterium acnes, as well as the cytotoxic activity against the cell line […] was carried out as described by Schneemann et al..

Data set [2] deals with Bacillus subtilis (DSM 347). Description: Growth inhibition of Bacillus subtilis. Format: cell-based. As to the method:
as §1

The next data set relates to Staphylococcus lentus. In words: Growth inhibition of Staphylococcus lentus. Format: cell-based. As to conditions: Mammaliicoccus lentus; test concentration of 100 μM; read-out: inhibition of growth of S. lentus.
The subject of a further data set is HepG2. In words: Cytotoxic activity against cancer cell line HepG2. As to conditions: concentration not given. As to the method: as §1
Data set [3] relates to HMGCoA (3-hydroxy-3-methylglutaryl coenzyme A reductase). The arrangement: method as in PMID 1880066. As to conditions: cited from earlier work.
The mark [4] stands for this setting: luminescent assay, 2 μM ATP substrate solution, 60 min at 25 °C.
Setting [5] is: DSM347, read-out: inhibition of growth of B. subtilis.

T1 sequence (P49841 whole entry, stated change not applied): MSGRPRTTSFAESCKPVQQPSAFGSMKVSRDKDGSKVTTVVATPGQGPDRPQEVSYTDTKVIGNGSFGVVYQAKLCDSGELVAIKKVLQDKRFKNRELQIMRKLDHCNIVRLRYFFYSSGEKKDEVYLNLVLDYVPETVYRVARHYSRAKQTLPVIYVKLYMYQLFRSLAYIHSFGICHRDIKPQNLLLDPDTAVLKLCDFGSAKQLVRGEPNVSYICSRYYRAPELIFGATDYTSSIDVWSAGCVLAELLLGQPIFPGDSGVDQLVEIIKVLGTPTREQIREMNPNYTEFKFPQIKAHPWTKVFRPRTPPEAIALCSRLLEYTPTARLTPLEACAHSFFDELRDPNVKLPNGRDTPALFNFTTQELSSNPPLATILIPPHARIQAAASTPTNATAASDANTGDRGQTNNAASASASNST

On to `Cc1cc2cc(O)cc(O)c2c2oc(=O)cc(O)c12` [Compound 1, pannorin], for which the “IC50 of GSK-3β inhibition” value in data set [1] (setting [4]) is “sub-μM”. The concentration for half-maximal inhibition (IC50) in data set [1] (luminescent assay, 2 μM ATP substrate solution, 60 min at 25 °C, read-out: IC50 of GSK-3β inhibition) came to 0.35 ± 0.04 µM. For the same molecule, the inhibition at 100 µM was found to be 54% in data set [2] (DSM347, test concentration of 100 μM, read-out: inhibition of growth of B. subtilis) and 88% with Staphylococcus lentus. Moreover, the “inhibition (cytotoxic effect) of cancer cell line HepG2” value (shortened to “inhibition (cytotoxic effect)”) in the data set on HepG2 is recorded as “lower than 35%”. Moreover, the “HMGCoA reductase inhibiting activity” value in data set [3] is “inhibiting activity”.

As for `Cc1cc(O)cc2oc(=O)c3c(O)cc(O)cc3c12` [Compound 2, alternariol], in data set [1], the half-maximal inhibitory concentration (IC50) is 0.13 ± 0.04 µM. For the same molecule, the “IC50 of GSK-3β inhibition” value in data set [1] (setting [4]) is “sub-μM”. Further, the figures for the inhibition at 100 µM (in data set [2] (setting [5]); in the data set on Staphylococcus lentus) were 79% and 66%, respectively. Moreover, in the data set with HepG2, the “inhibition (cytotoxic effect)” value was “lower than 35%”.

Turning to `COc1cc(O)c2c(=O)oc3cc(O)cc(C)c3c2c1` [Compound 3, alternariol-9-methylether], the IC50 in data set [1] turned out to be 0.2 ± 0.02 µM. For the same molecule, the “IC50 of GSK-3β inhibition” value in data set [1] (setting [4]) is “sub-μM”. Also, the inhibition at 100 µM in data set [2] (setting [5]) was found to be 82%; in the data set with Staphylococcus lentus, 25%. Besides, the “inhibition (cytotoxic effect)” value with HepG2 is “lower than 35%”.
